From ChEMBL document CHEMBL1201862, “PubChem BioAssay data set” (2004)
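Cells were grown in 96-well plates and exposed to each compound for 48 hours at five concentrations; endpoints were interpolated linearly between bracketing concentrations, or set to the highest concentration if not reached. The concentration for 50% growth inhibition is given as GI50.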 The source made the active and inactive calls. No stated cut-off is given here; in the data, active = GI50 up to about 1.1 µM and inactive = higher. Starred links: 1 amine or outer side, 2 acyl side, 3 side chain; linkers in the order of their positions; H or OH if unused. Non-standard residues stand in square brackets, D forms with d. Residues, ends and D or L forms follow the SMILES beside them. X41 = CSCCCC(N[*:1])C(=O)[*:2]

What was measured:
Assay in all cases: NCI anticancer screen, dose series, 48 h
A498 = test system: A498
CAKI-1 = test system: CAKI-1
EKVX = test system: EKVX
HCT-116 = test system: HCT-116
HCT-15 = test system: HCT-15
HL-60 = test system: HL-60
HOP-92 = test system: HOP-92
M14 = test system: M14
MDA-MB-435 = test system: MDA-MB-435
Malme-3M = test system: Malme-3M
NCI-H23 = test system: NCI-H23
NCI-H522 = test system: NCI-H522
NCI/ADR-RES = test system: NCI/ADR-RES
OVCAR-8 = test system: OVCAR-8
PC-3 = test system: PC-3
SF-268 = test system: SF-268
SF-539 = test system: SF-539
SK-MEL-28 = test system: SK-MEL-28
NCI-H226 = test system: NCI-H226
HCC 2998 = test system: HCC 2998

Oc1c(CN2CCN(c3ccccc3)CC2)cc(Br)c2cccnc12
GI50 (A498): 7.46 µM (inactive)
GI50 (CAKI-1): 1.21 µM (inactive)
GI50 (EKVX): 2.62 µM (inactive)
GI50 (HCT-116): 0.448 µM (active)
GI50 (HCT-15): 0.135 µM
GI50 (HL-60): 0.485 µM (active)
GI50 (HOP-92): 2.2 µM (inactive)
GI50 (M14): 1.14 µM (inactive)
GI50 (MDA-MB-435): 1.46 µM (inactive)
GI50 (Malme-3M): 0.995 µM (active)
GI50 (NCI-H23): 1.82 µM (inactive)
GI50 (NCI-H522): 0.555 µM (active)
GI50 (NCI/ADR-RES): 0.206 µM (active)
GI50 (OVCAR-8): 0.721 µM (active)
GI50 (PC-3): 4.22 µM (inactive)
GI50 (SF-268): 0.893 µM (active)
GI50 (SF-539): 2.07 µM (inactive)
GI50 (SK-MEL-28): 3.97 µM (inactive)

NNC(=O)CS(=O)(=O)Nc1ncccn1
GI50 (A498): > 100 µM (inactive)
GI50 (CAKI-1): > 100 µM (inactive)
GI50 (EKVX): > 100 µM (inactive)
GI50 (HCT-116): > 100 µM (inactive)
GI50 (HCT-15): > 100 µM
GI50 (HOP-92): > 100 µM (inactive)
GI50 (M14): > 100 µM (inactive)
GI50 (MDA-MB-435): > 100 µM (inactive)
GI50 (Malme-3M): > 100 µM (inactive)
GI50 (NCI-H226): > 100 µM (inactive)
GI50 (NCI-H23): > 100 µM (inactive)
GI50 (NCI-H522): > 100 µM (inactive)
GI50 (NCI/ADR-RES): > 100 µM (inactive)
GI50 (OVCAR-8): > 100 µM (inactive)
GI50 (PC-3): > 100 µM (inactive)
GI50 (SF-268): > 100 µM (inactive)
GI50 (SF-539): > 100 µM (inactive)
GI50 (SK-MEL-28): > 100 µM (inactive)

O=C1NC(=O)C(c2c[nH]c3cc(Br)ccc23)=C1c1cnc[nH]1
GI50 (A498): 14.5 µM (inactive)
GI50 (CAKI-1): 13.2 µM (inactive)
GI50 (EKVX): 23.4 µM (inactive)
GI50 (HCT-116): 25.8 µM (inactive)
GI50 (HCT-15): 54.5 µM
GI50 (HL-60): 20.4 µM (inactive)
GI50 (HOP-92): > 100 µM (inactive)
GI50 (M14): 51.6 µM (inactive)
GI50 (MDA-MB-435): 25.1 µM (inactive)
GI50 (Malme-3M): > 100 µM (inactive)
GI50 (NCI-H226): 1.47 µM (inactive)
GI50 (NCI-H522): 31.8 µM (inactive)
GI50 (NCI/ADR-RES): > 100 µM (inactive)
GI50 (OVCAR-8): 65.2 µM (inactive)
GI50 (PC-3): 24.7 µM (inactive)
GI50 (SF-268): 29.5 µM (inactive)
GI50 (SF-539): 21.9 µM (inactive)
GI50 (SK-MEL-28): 62.1 µM (inactive)

COC(O)C(=O)c1c2c(cc3c1CC1(Cc4cc5c(cc4C1)CCC5)C3)CCC2 (stereo not given)
GI50 (A498): 17.9 µM (inactive)
GI50 (CAKI-1): 20.5 µM (inactive)
GI50 (EKVX): 22.2 µM (inactive)
GI50 (HCC 2998): 23.6 µM (inactive)
GI50 (HCT-116): 8.73 µM (inactive)
GI50 (HCT-15): 20.7 µM
GI50 (HL-60): 23.2 µM (inactive)
GI50 (HOP-92): 15.7 µM (inactive)
GI50 (M14): 16.6 µM (inactive)
GI50 (MDA-MB-435): 2.7 µM (inactive)
GI50 (Malme-3M): 16.3 µM (inactive)
GI50 (NCI-H23): 16.4 µM (inactive)
GI50 (NCI-H522): 17.7 µM (inactive)
GI50 (NCI/ADR-RES): 17.3 µM (inactive)
GI50 (OVCAR-8): 18.3 µM (inactive)
GI50 (PC-3): 16.7 µM (inactive)
GI50 (SF-268): 20.5 µM (inactive)
GI50 (SF-539): 17.3 µM (inactive)
GI50 (SK-MEL-28): 20 µM (inactive)

Cc1oc2c(cc(O)c3ccccc32)c2cccc1-2
GI50 (A498): > 100 µM (inactive)
GI50 (CAKI-1): > 100 µM (inactive)
GI50 (EKVX): > 100 µM (inactive)
GI50 (HCC 2998): > 100 µM (inactive)
GI50 (HCT-116): > 100 µM (inactive)
GI50 (HCT-15): 99.5 µM
GI50 (HL-60): 96.6 µM (inactive)
GI50 (HOP-92): > 100 µM (inactive)
GI50 (M14): 24.1 µM (inactive)
GI50 (MDA-MB-435): > 100 µM (inactive)
GI50 (Malme-3M): > 100 µM (inactive)
GI50 (NCI-H23): > 100 µM (inactive)
GI50 (NCI/ADR-RES): > 100 µM (inactive)
GI50 (OVCAR-8): > 100 µM (inactive)
GI50 (PC-3): > 100 µM (inactive)
GI50 (SF-268): > 100 µM (inactive)
GI50 (SF-539): > 100 µM (inactive)
GI50 (SK-MEL-28): > 100 µM (inactive)

CN1C(=O)N(C)C2(CCN(CC(CC3OCCO3)c3ccc(F)cc3)CC2)C1=O (stereo not given)
GI50 (A498): > 100 µM (inactive)
GI50 (CAKI-1): > 100 µM (inactive)
GI50 (EKVX): > 100 µM (inactive)
GI50 (HCT-116): > 100 µM (inactive)
GI50 (HCT-15): > 100 µM
GI50 (HL-60): > 100 µM (inactive)
GI50 (HOP-92): > 100 µM (inactive)
GI50 (M14): > 100 µM (inactive)
GI50 (MDA-MB-435): > 100 µM (inactive)
GI50 (Malme-3M): > 100 µM (inactive)
GI50 (NCI-H226): > 100 µM (inactive)
GI50 (NCI-H23): > 100 µM (inactive)
GI50 (NCI-H522): > 100 µM (inactive)
GI50 (NCI/ADR-RES): > 100 µM (inactive)
GI50 (OVCAR-8): > 100 µM (inactive)
GI50 (PC-3): > 100 µM (inactive)
GI50 (SF-268): > 100 µM (inactive)
GI50 (SF-539): > 100 µM (inactive)
GI50 (SK-MEL-28): > 100 µM (inactive)

CC(C)=CCC[C@@H](C)C1=C(O)C(=O)C(C)=C(Nc2ccccc2I)C1=O
GI50 (A498): 5.43 µM (inactive)
GI50 (CAKI-1): 12.9 µM (inactive)
GI50 (EKVX): 18.2 µM (inactive)
GI50 (HCC 2998): 16.6 µM (inactive)
GI50 (HCT-116): 11.8 µM (inactive)
GI50 (HCT-15): 6.56 µM
GI50 (HL-60): 2.19 µM (inactive)
GI50 (HOP-92): 14.5 µM (inactive)
GI50 (M14): 17 µM (inactive)
GI50 (MDA-MB-435): 21.5 µM (inactive)
GI50 (Malme-3M): 12.2 µM (inactive)
GI50 (NCI-H226): 5.42 µM (inactive)
GI50 (NCI-H23): 6.05 µM (inactive)
GI50 (NCI/ADR-RES): 2.28 µM (inactive)
GI50 (OVCAR-8): 3.08 µM (inactive)
GI50 (PC-3): 5.61 µM (inactive)
GI50 (SF-268): 11.3 µM (inactive)
GI50 (SF-539): 9.23 µM (inactive)
GI50 (SK-MEL-28): 18.3 µM (inactive)

C[C@]12CC[C@H]3[C@@H](CC=C4C[C@@H](N5CCCC5)CC[C@@]43C)[C@@H]1C/C(=C\c1ccc([N+](=O)[O-])cc1)[C@@H]2O
GI50 (A498): 15.3 µM (inactive)
GI50 (CAKI-1): 13.3 µM (inactive)
GI50 (HCT-116): 16.3 µM (inactive)
GI50 (HCT-15): 13.8 µM
GI50 (HOP-92): 13 µM (inactive)
GI50 (M14): 16.6 µM (inactive)
GI50 (MDA-MB-435): 16.9 µM (inactive)
GI50 (Malme-3M): 16.5 µM (inactive)
GI50 (NCI-H226): 18.5 µM (inactive)
GI50 (NCI-H23): 19.7 µM (inactive)
GI50 (NCI-H522): 17.1 µM (inactive)
GI50 (NCI/ADR-RES): 17.7 µM (inactive)
GI50 (PC-3): 24.3 µM (inactive)
GI50 (SF-268): 17.5 µM (inactive)
GI50 (SF-539): 15.4 µM (inactive)
GI50 (SK-MEL-28): 14.1 µM (inactive)

Cc1cc2[nH]c3c(C#N)c(-c4ccccc4)c(/C=N/c4ccc(F)cc4)c(=O)n3c2cc1C
GI50 (A498): > 100 µM (inactive)
GI50 (CAKI-1): > 100 µM (inactive)
GI50 (EKVX): > 100 µM (inactive)
GI50 (HCC 2998): > 100 µM (inactive)
GI50 (HCT-116): > 100 µM (inactive)
GI50 (HCT-15): > 100 µM
GI50 (M14): > 100 µM (inactive)
GI50 (MDA-MB-435): 91.2 µM (inactive)
GI50 (Malme-3M): 76 µM (inactive)
GI50 (NCI-H226): 69.7 µM (inactive)
GI50 (NCI-H23): > 100 µM (inactive)
GI50 (NCI-H522): 45.5 µM (inactive)
GI50 (NCI/ADR-RES): > 100 µM (inactive)
GI50 (OVCAR-8): > 100 µM (inactive)
GI50 (PC-3): > 100 µM (inactive)
GI50 (SF-268): 99.5 µM (inactive)
GI50 (SF-539): > 100 µM (inactive)
GI50 (SK-MEL-28): > 100 µM (inactive)

CC1=CCS(=O)(=O)C1C(O)C1=C(C)CCCC1(C)C (stereo not given)
GI50 (A498): 0.0395 µM (active)
GI50 (CAKI-1): > 100 µM (inactive)
GI50 (EKVX): > 100 µM (inactive)
GI50 (HCC 2998): > 100 µM (inactive)
GI50 (HCT-116): 72.3 µM (inactive)
GI50 (HCT-15): > 100 µM
GI50 (HL-60): 35.3 µM (inactive)
GI50 (M14): 69.2 µM (inactive)
GI50 (MDA-MB-435): 63.4 µM (inactive)
GI50 (Malme-3M): 60 µM (inactive)
GI50 (NCI-H226): > 100 µM (inactive)
GI50 (NCI-H23): > 100 µM (inactive)
GI50 (NCI-H522): 58.6 µM (inactive)
GI50 (NCI/ADR-RES): 78.7 µM (inactive)
GI50 (OVCAR-8): > 100 µM (inactive)
GI50 (PC-3): 55.5 µM (inactive)
GI50 (SF-539): > 100 µM (inactive)
GI50 (SK-MEL-28): > 100 µM (inactive)

CSCCCC(NC(=O)CNC(=O)C1CCCN1C(=O)C(Cc1ccc(O)cc1)NC(=O)C(Cc1ccccc1)NC(=O)C(CCCNC(=N)N)NC(=O)C(CC(=O)O)NC(=O)C1CCCN1C(=O)C(CC(=O)O)NC(=O)C1CCCN1C(=O)C1CCCN1C(=O)CN)C(N)=O (stereo not given) (H-GPPDPDRFYPG[X41]-NH2; configuration not given here)
GI50 (A498): > 50 µM (inactive)
GI50 (CAKI-1): > 50 µM (inactive)
GI50 (EKVX): > 50 µM (inactive)
GI50 (HCT-116): > 50 µM (inactive)
GI50 (HCT-15): > 50 µM
GI50 (HL-60): > 50 µM (inactive)
GI50 (HOP-92): > 50 µM (inactive)
GI50 (M14): > 50 µM (inactive)
GI50 (MDA-MB-435): > 50 µM (inactive)
GI50 (Malme-3M): > 50 µM (inactive)
GI50 (NCI-H226): > 50 µM (inactive)
GI50 (NCI-H23): > 50 µM (inactive)
GI50 (NCI-H522): > 50 µM (inactive)
GI50 (NCI/ADR-RES): > 50 µM (inactive)
GI50 (OVCAR-8): > 50 µM (inactive)
GI50 (PC-3): > 50 µM (inactive)
GI50 (SF-268): > 50 µM (inactive)
GI50 (SF-539): > 50 µM (inactive)
GI50 (SK-MEL-28): > 50 µM (inactive)
